{"source": "paper PMC4923153", "about": "“Protection of Primary Dopaminergic Midbrain Neurons by GPR139 Agonists Supports Different Mechanisms of MPP^+ and Rotenone Toxicity” (Frontiers in Cellular Neuroscience, 2016)", "target": "T1, human GPR139 receptor (Homo sapiens, UniProt Q6DWJ6)", "T1 construct": "expressed in transfected cells; host or cells: CHO-K1", "T1 sequence (Q6DWJ6 1-353)": "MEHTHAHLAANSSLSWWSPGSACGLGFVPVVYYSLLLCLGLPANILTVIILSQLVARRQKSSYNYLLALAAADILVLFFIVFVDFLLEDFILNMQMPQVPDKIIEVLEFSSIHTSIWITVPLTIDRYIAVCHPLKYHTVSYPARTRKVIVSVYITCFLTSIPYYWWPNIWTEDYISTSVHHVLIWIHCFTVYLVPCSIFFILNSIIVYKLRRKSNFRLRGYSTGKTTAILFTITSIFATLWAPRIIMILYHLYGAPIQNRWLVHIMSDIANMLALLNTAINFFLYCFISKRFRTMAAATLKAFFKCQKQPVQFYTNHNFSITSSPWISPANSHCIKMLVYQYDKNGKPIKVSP", "assay": "GPR139 calcium mobilization assay (CHO-K1 cells stably expressing the receptor)", "format": "cell-based", "conditions": "Ca2+ mobilization, determined as described (Shi et al., 2011); read-out: EC50 (GPR139 agonist)", "method": "EC50 and IC50 for all compounds were determined as described (Shi et al., [2011]).\nAll compounds were further characterized using GPR139-based Ca^2+ mobilization assays (Figure 5).\nFigure 5 Additional characterization of GPR139 compounds using kinetic fluorescence measurements and concentration-response determination in calcium mobilization assays. (A–D) Examples for the kinetic of relative fluorescence units (RFU) for compound 1 and 4 and related controls, involving a two-step addition protocol. (A) Cellular fluorescence response to addition of buffer (approximately at time 0:00 min) and a second addition of buffer at 3:20 min. (B) Cellular fluorescence response to addition of the Ca^2+ ionophore and reference compound for complete release of Ca^2+ from intracellular stores, ionomycin. (C) Cellular response to addition of 10 μM compound 1 at time 0:00. (D) Cellular fluorescence in response to antagonist compound 4 (at 0:00, 50 μM) and addition of agonist compound 1 at EC85 concentration. […]\nStandard molecular cloning techniques were used to generate Chinese hamster ovary (CHO-K1) cells stably expressing the human GPR139 receptor. […] Calcium flux was measured using a Hamamatsu FDSS7000 imaging-based plate reader (Hamamatsu Photonics) using 480 nm excitation light and emitted fluorescent light passed through a 525 nm emission filter and detected by a CCD camera. […]", "data": [{"smiles": "CN(C)C1CCN(C(=O)CNC(=O)Cc2cccc3ccccc23)C1", "note": "(stereo not shown) [compound 2, N-[2-(3-Dimethylamino-pyrrolidin-1-yl)-2-oxo-ethyl]-2-Naphthalen-1-yl-acetamide]", "values": [{"measurement": "EC50", "result": 530, "unit": "nM"}]}]}
